Tests used:
Type in all cases: cell-based, human
[1] = test system: Jurkat tumor cell line; test: Assessment of cytochrome c loss (FlowCellect Cytochrome c Kit); conditions: compound at CC50, incubation 3 h, anti-cytochrome c-FITC
Protocol: Quantification of cytochrome c release from mitochondria in apoptotic cells was presented to detect the mitochondrial pathway of apoptosis in cells using flow cytometry with the FlowCellect™ Cytochrome c Kit (FCCH100110). For this, cells were treated with FITC-conjugated antibodies against cytochrome c and control anti-IgG1-FITC, together with the use of an optimized fixation procedure, permeabilization, and blocking buffer (Luminex®, USA). […] Jurkat cells were incubated for 4 h with the synthesized substances at a concentration corresponding to their 24-h CC50 in a culture plate and assessed using the NovoCyte Penteon Flow Cytometer System (Agilent, 5301 Stevens Creek Blvd., Santa Clara, CA, USA). The obtained data were processed using NovoExpress® software (ACEA).

[2] = test system: Jurkat cells; test: Assessment of autophagy (anti-LC3/FITC, flow cytometry); conditions: 0.5 CC50, 48 h
From the text: Autophagy is involved in various physiological processes and its changes are associated with the pathogenesis of diseases such as neurodegenerative diseases, cardiovascular complications, cancer, and infectious diseases, as well as with physiological processes such as innate and specific immunity, pathogen clearance, lymphocyte selection, antigen presentation, and production of immunoglobulins. Therefore, the determination of LC3 protein inside autophagosomes without the cytosolic form of LC3-I at the stage of selective cell permeability was measured using flow cytometry. Thus, using the FlowCellect™ LC3-GFP Reporter Autophagy Assay Kit (FCCH100170 and FCCH100181), flow cytometry allowed for a rapid assay that could be combined with other phenotypic and functional markers to characterize different cell populations.
Canonical autophagy is associated with the conversion of LC3 protein (an autophagosome marker) from the cytoplasmic form of LC3I to the lipid-bound form of LC3II, which is associated with the membranes of maturing autophagosomes. The autophagy process can be conveniently classified into several stages. First, induction and translocation of the cytoplasmic LC3 protein occur due to the influence of external stimuli (adverse environmental influences)—the process is initiated by external/internal stimuli (for example, nutrient depletion or hypoxia). Then, the formation of autophagosomes begins, which are double-membrane vesicles that include the LC3 protein. This protein regulates the fusion of autophagosomes and lysosomes. It exists in two fractions—cytoplasmic LC3-I and LC3-II, isolated in the autophagosomal membrane. The LC3-II protein fraction was specified in our work, as its detection is a reliable indicator of the processes of autophagy in the cell.

[3] = test system: Jurkat cell lysates; test: Multiplex analysis of signaling, genotoxicity and early apoptosis proteins (MILLIPLEX MAP, Luminex)
Protocol: Multiplex analysis was performed according to a previously published method. MILLIPLEX®MAP technology is used to determine the total protein or phosphorylated protein levels of various biological analytes, such as kinases or signaling proteins, including CREB, ERK/MAP, p70 S6, p21, p38, PI3K/AKT/mTOR, JNK (A), p53, MDM2, Bcl-2/Bax, STAT3 and STAT5, Nf-kB, Caspase 3-8-9, JNK, ATM, Chk1, Chk2, and H2AX, in cell lysates using the Luminex® system ((MILLIPLEX Multi-Pathway Magnetic Bead 9-Plex—Cell Signaling Multiplex Assay kit, Merk, Germany). This MILLIPLEX®MAP technology provides an alternative to Western blotting and immunoprecipitation and has several important advantages, such as more accurate measurement of small amounts of protein and the elimination of analyte loss during sample preparation. The multiplex immunoassay (MILLIPLEX 48-680MAG; Merck Millipore, Germany) was performed in Millipore 96-well plates to detect changes in concentrations of phosphorylated and unphosphorylated proteins p53, MDM2, p21, p38, PI3K/AKT/mTOR, Bcl-2/Bax, STAT3 and STAT5, Nf-kB, Caspase 3 -8-9, CREB, ERK/MAP, p70 S6, JNK, ATM, Chk1, Chk2, and H2AX in Jurkat cell lysates.
The levels of phosphorylated and non-phosphorylated proteins were analyzed using MILLIPLEX® map technology to study the analytes in the same sample within a fairly short time. Various deviations in protein concentration due to external factors or detection errors that could affect the results of the experiment were thereby reduced to zero.
The expression of p53, MDM2, p21, p38, PI3K/AKT/mTOR, Bcl-2/Bax, STAT3 and STAT5, Nf-kB, Caspase 3-8-9, CREB, ERK/MAP, p70 S6, JNK, ATM, Chk1, Chk2, and H2AX proteins in lysate samples of Jurkat tumor cells were studied using Luminex technology with the MILLIPLEX® MAP 9-Plex Multi-Pathway 9-plex Magnetic Bead Kit. This bead-based assay involved color-coded fluorescent particles pre-coated with specific antibodies targeting 9 major kinases in signaling pathways.

CCCCCCCCCC/C=C\CC/C=C\CC/C=C\CCCCCCCCCCC1=C[C@H](C)OC1=O [compound 1, chatenaytrienin-1]
cells with cytochrome c released into the cytoplasm (Negative gate) [1]: 61.67%
cells with autophagy (gate M3-2) [2]: 96.26%
expression of caspase-8 ([3]; 6 h and 12 h): did not significantly affect
levels of Akt, p38, and CREB ([3]; compound at CC50, 4 h): most pronouncedly suppressed
levels of all types of kinase proteins (CREB, JNK, NFkB, p38, ERK1/2, Akt, p70S6K, STAT3, STAT5) ([3]; compound at CC50, 4 h, MFI versus intact cells): most pronouncedly reduced
cleaved caspase-9 ([3]; especially after 12 h, level exceeded control): promoted the accumulation
level of BAD protein ([3]; first 6 h, within 12 h began to increase again, not reaching control): decreased

Source: article PMC10451668, “Natural Acetogenins, Chatenaytrienins-1, -2, -3 and -4, Mitochondrial Potential Uncouplers and Autophagy Inducers—Promising Anticancer Agents” (Antioxidants, 2023)
